The test system of one series is Escherichia coli JUHL. Nature of the series: Assay A: in vitro antibacterial activity, agar dilution MIC. As to conditions: Table 1, Assay A, BHI agar, 35-37° C., about 20 to 24 hours; code D = Escherichia coli JUHL; unit assumed. In kind it is cell-based. As for the experimental part: (§1) Assay A. Determination of Biological Activity In Vitro Assay of Antibacterial Activity
(§2) Representative compounds of the invention were assayed in vitro for antibacterial activity. Twelve petri dishes containing successive aqueous dilutions of the test compound mixed with sterilized Brain Heart Infusion (BHI) agar (Difco 0418-01-5) (10 mL) were prepared. Each plate was inoculated with 1:100 (or 1:10 for slow-growing strains, such as Micrococcus and Streptococcus) dilutions of up to 32 different microorganisms using a Steers replicator block. The inoculated plates were incubated at 35-37° C. for about 20 to about 24 hours. In addition, a control plate with BHI agar and no test compound was prepared and incubated at the beginning and end of each test.
(§3) An additional plate containing a compound having known susceptibility patterns for the organisms being tested and belonging to the same antibiotic class as the test compound was also prepared and incubated as a further control and to provide test-to-test comparability. Ciprofloxacin was used for this purpose.
(§4) After incubation, each plate was visually inspected. The minimum inhibitory concentration (MIC) was defined as the lowest concentration of drug yielding no growth, a slight haze, or sparsely isolated colonies on the inoculum spot as compared to the growth control.
(In general: In agar dilution the substance is mixed into plates at graded concentrations.)

The test system of series [1] is Enterococcus faecalis PIU 1967. The series is described as above. It counts as cell-based. The following applies: Table 1, Assay A, BHI agar, 35-37° C., about 20 to 24 hours; code B = Enterococcus faecalis PIU 1967; unit assumed. As for the experimental part: as §1, §2, §3, §4
The test system of series [2] is Haemophilus influenzae DILL AMP R. The series is described as above. It counts as cell-based. The following applies: Table 1, Assay A, BHI agar, 35-37° C., about 20 to 24 hours; code E = Haemophilus influenzae DILL AMP R; unit assumed. How it is done: as §1, §2, §3, §4
Series [3] concerns Staphylococcus aureus ATCC 6538P. The series is described as above. In kind it is cell-based. The following applies: Table 1, Assay A, BHI agar, 35-37° C., about 20 to 24 hours; code A = Staphylococcus aureus ATCC 6538P; unit assumed. How it is done: as §1, §2, §3, §4
Series [4] relates to Streptococcus pneumoniae ATCC 6303. The description is as above. The following applies: Table 1, Assay A, BHI agar, 35-37° C., about 20 to 24 hours; code F = Streptococcus pneumoniae ATCC 6303; unit assumed. In kind it is cell-based. As for the experimental part: as §1, §2, §3, §4
Series [5] has as its system Moraxella catarrahalis 2604. Described as above. In kind it is cell-based. As to conditions: Table 1, Assay A, BHI agar, 35-37° C., about 20 to 24 hours; code C = Moraxella catarrahalis 2604; unit assumed. As for the experimental part: as §1, §2, §3, §4

Consider `COc1c(-c2cc3c(s2)CCNC3)ccc2c(=O)c(C(=O)O)cn(C3CC3)c12.Cl` [Example 2, 1-cyclopropyl-8-methoxy-4-oxo-7-(4,5,6,7-tetrahydrothieno[3,2-c]pyridin-2-yl)-1,4-dihydro-3-quinolinecarboxylic acid hydrochloride], for which the melting point (in general, the temperature of the solid-liquid transition) was 180 °C (dec.). In the series with Escherichia coli JUHL, this compound displayed an Antibacterial Activity (MIC's), D of 0.2 µg/mL. Moreover, the Antibacterial Activity (MIC's), B in series [1] stood at 0.2 µg/mL. This compound had an Antibacterial Activity (MIC's), E in series [2] of 0.12 µg/mL. Besides, the Antibacterial Activity (MIC's), A in series [3] came out at 0.05 µg/mL. The Antibacterial Activity (MIC's), F in series [4] amounted to 0.5 µg/mL. The compound also registered an Antibacterial Activity (MIC's), C in series [5] of 0.2 µg/mL.
Take `COc1c(-c2cc3c(s2)CNCC3)ccc2c(=O)c(C(=O)O)cn(C3CC3)c12.Cl` [Example 7, 1-cyclopropyl-8-methoxy-4-oxo-7-(4,5,6,7-tetrahydrothieno(2,3-c)pyridin-2-yl)-1,4-dihydro-3-quinolinecarboxylic acid hydrochloride]: the melting point was 188 to 189 °C. Besides, in the series with Escherichia coli JUHL, the Antibacterial Activity (MIC's), D stood at 0.2 µg/mL. Moreover, in series [1], the Antibacterial Activity (MIC's), B is 0.39 µg/mL. The Antibacterial Activity (MIC's), E in series [2] is 0.06 µg/mL. This compound returned an Antibacterial Activity (MIC's), A in series [3] of 0.2 µg/mL. The same compound gave an Antibacterial Activity (MIC's), F in series [4] of 0.25 µg/mL. This compound also registered an Antibacterial Activity (MIC's), C in series [5] of 0.2 µg/mL.
In turn, `Cl.O=C(O)c1cn(C2CC2)c2nc(-c3cc4c(s3)CNCC4)c(F)cc2c1=O` [Example 9, 1-cyclopropyl-6-fluoro-4-oxo-7-(4,5,6,7-tetrahydrothieno(2,3-c)pyridin-2-yl)-1,4-dihydro[1,8]naphthyridine-3-carboxylic acid hydrochloride] gave a melting point of 290 to 291 °C. This compound also had an Antibacterial Activity (MIC's), D with Escherichia coli JUHL of 0.1 µg/mL. The compound also displayed an Antibacterial Activity (MIC's), B in series [1] of 0.2 µg/mL. This compound also came in with an Antibacterial Activity (MIC's), E in series [2] of 0.06 µg/mL. The Antibacterial Activity (MIC's), A in series [3] came out at 0.1 µg/mL. This compound came in with an Antibacterial Activity (MIC's), F in series [4] of 0.125 µg/mL. In series [5], the Antibacterial Activity (MIC's), C was 0.1 µg/mL.
As for `Br.CC1NCCc2sc(-c3ccc4c(=O)c(C(=O)O)cn(C5CC5)c4c3OC(F)F)cc21` (stereo not shown) [Example 20, 1-cyclopropyl-8-(difluoromethoxy)-7-(4-methyl-4,5,6,7-tetrahydrothieno[3,2-c]pyridin-2-yl)-4-oxo-1,4-dihydro-3-quinolinecarboxylic acid hydrobromide], the melting point is 176 to 180 °C (dec.). The compound also displayed an Antibacterial Activity (MIC's), D in the series on Escherichia coli JUHL of 0.78 µg/mL. The same compound registered an Antibacterial Activity (MIC's), B in series [1] of 0.78 µg/mL. In series [2], this compound showed an Antibacterial Activity (MIC's), E of 0.25 µg/mL. In series [3], the Antibacterial Activity (MIC's), A was 0.2 µg/mL. Also, the Antibacterial Activity (MIC's), F in series [4] was 1 µg/mL. In addition, in series [5], the Antibacterial Activity (MIC's), C worked out at 0.78 µg/mL.
As for `CC1NCCc2cc(-c3nc4c(cc3F)c(=O)c(C(=O)O)cn4C3CC3)sc21.Cl` (stereo not shown) [Example 22, 1-cyclopropyl-6-fluoro-7-(7-methyl-4,5,6,7-tetrahydrothieno(2,3-c)pyridin-2-yl)-4-oxo-1,4-dihydro[1,8]naphthyridine-3-carboxylic acid hydrochloride], the melting point lay within 293 to 294 °C. In the series on Escherichia coli JUHL, the Antibacterial Activity (MIC's), D came out at 0.78 µg/mL. In series [1], this compound came in with an Antibacterial Activity (MIC's), B of 0.78 µg/mL. Besides, in series [2], the Antibacterial Activity (MIC's), E was 0.25 µg/mL. In series [3], the Antibacterial Activity (MIC's), A amounted to 0.2 µg/mL. Besides, the Antibacterial Activity (MIC's), F in series [4] was found to be 2 µg/mL. Moreover, the Antibacterial Activity (MIC's), C in series [5] turned out to be 0.39 µg/mL.
Compound `COc1c(-c2cc3c(s2)CCCC3N)ccc2c(=O)c(C(=O)O)cn(C3CC3)c12.Cl` (stereo not shown) [Example 40, 7-(4-amino-4,5,6,7-tetrahydro-1-benzothien-2-yl)-1-cyclopropyl-8-methoxy-4-oxo-1,4-dihydro-3-quinolinecarboxylic acid hydrochloride] yielded a melting point of 219 to 222 °C. Moreover, in the series on Escherichia coli JUHL, the Antibacterial Activity (MIC's), D is 0.2 µg/mL. In addition, the Antibacterial Activity (MIC's), B in series [1] came to 0.1 µg/mL. This compound also returned an Antibacterial Activity (MIC's), E in series [2] of 0.06 µg/mL. For the same compound, the Antibacterial Activity (MIC's), A in series [3] is 0.02 µg/mL. Also, in series [4], the Antibacterial Activity (MIC's), F stood at 0.125 µg/mL. Also, the Antibacterial Activity (MIC's), C in series [5] was 0.1 µg/mL.
`COc1c(-c2cc3c(s2)CCC(O)C3)ccc2c(=O)c(C(=O)O)cn(C3CC3)c12` (stereo not shown) [Example 42, 1-cyclopropyl-7-(5-hydroxy-4,5,6,7-tetrahydro-1-benzothien-2-yl)-8-methoxy-4-oxo-1,4-dihydro-3-quinolinecarboxylic acid] showed a melting point of 232 to 233 °C. Moreover, the Antibacterial Activity (MIC's), D in the series with Escherichia coli JUHL worked out at 0.78 µg/mL. Also, the Antibacterial Activity (MIC's), B in series [1] worked out at 0.39 µg/mL. This compound returned an Antibacterial Activity (MIC's), E in series [2] of 0.125 µg/mL. In addition, the Antibacterial Activity (MIC's), A in series [3] worked out at 0.02 µg/mL. The Antibacterial Activity (MIC's), F in series [4] came out at 0.25 µg/mL. In series [5], this compound registered an Antibacterial Activity (MIC's), C of 0.02 µg/mL.
For `CC1NCCc2cc(-c3ccc4c(=O)c(C(=O)O)cn(C5CC5)c4c3OC(F)F)sc21.Cl` (stereo not shown) [Example 52, 1-cyclopropyl-8-diflouromethoxy-7-(7-methyl-4,5,6,7-tetrahydrotheino(2,3-c)pyrindin-2-yl)-4-oxo-1,4-dihydro-3-quinolinecarboxylic acid hydrochloride], the Antibacterial Activity (MIC's), D in the series with Escherichia coli JUHL was determined as 0.39 µg/mL. The Antibacterial Activity (MIC's), B in series [1] was found to be 0.78 µg/mL. Further, the Antibacterial Activity (MIC's), E in series [2] stood at 0.25 µg/mL. The Antibacterial Activity (MIC's), A in series [3] turned out to be 0.2 µg/mL. For the same compound, the Antibacterial Activity (MIC's), F in series [4] was found to be 0.25 µg/mL. This compound also returned an Antibacterial Activity (MIC's), C in series [5] of 0.2 µg/mL.
